Laboratory results from patent US6392025B1, “Human NHE3 protein and non-human cells expressing same” (Tranzmembrane, LLC, priority 1995, dated 2002).
Entries after “also recorded” stand apart in the source; their conditions may differ. Read-outs that look alike come from different tables or passages of the source.

What was measured:
Rat NHE3 = Rat NHE3 (Rattus norvegicus, UniProt P26433); settings: read-out: Inhibition constants (IC50); cited from earlier work
human NHE3 [1] = biological target: T1, human NHE3 (Homo sapiens, UniProt P48764); assay: 22Na+ uptake in acid loaded HNHE3/PS120 cells; assay type: cell-based; settings: 22Na+ 1 mM
T1 construct: expressed in transfected cells; host or cells: PS120 (Na+/H+ exchanger deficient derivative of Chinese hamster lung fibroblast line CCL39), plasmid pEH3 (pECE vector)
T1 sequence (P48764 26-834): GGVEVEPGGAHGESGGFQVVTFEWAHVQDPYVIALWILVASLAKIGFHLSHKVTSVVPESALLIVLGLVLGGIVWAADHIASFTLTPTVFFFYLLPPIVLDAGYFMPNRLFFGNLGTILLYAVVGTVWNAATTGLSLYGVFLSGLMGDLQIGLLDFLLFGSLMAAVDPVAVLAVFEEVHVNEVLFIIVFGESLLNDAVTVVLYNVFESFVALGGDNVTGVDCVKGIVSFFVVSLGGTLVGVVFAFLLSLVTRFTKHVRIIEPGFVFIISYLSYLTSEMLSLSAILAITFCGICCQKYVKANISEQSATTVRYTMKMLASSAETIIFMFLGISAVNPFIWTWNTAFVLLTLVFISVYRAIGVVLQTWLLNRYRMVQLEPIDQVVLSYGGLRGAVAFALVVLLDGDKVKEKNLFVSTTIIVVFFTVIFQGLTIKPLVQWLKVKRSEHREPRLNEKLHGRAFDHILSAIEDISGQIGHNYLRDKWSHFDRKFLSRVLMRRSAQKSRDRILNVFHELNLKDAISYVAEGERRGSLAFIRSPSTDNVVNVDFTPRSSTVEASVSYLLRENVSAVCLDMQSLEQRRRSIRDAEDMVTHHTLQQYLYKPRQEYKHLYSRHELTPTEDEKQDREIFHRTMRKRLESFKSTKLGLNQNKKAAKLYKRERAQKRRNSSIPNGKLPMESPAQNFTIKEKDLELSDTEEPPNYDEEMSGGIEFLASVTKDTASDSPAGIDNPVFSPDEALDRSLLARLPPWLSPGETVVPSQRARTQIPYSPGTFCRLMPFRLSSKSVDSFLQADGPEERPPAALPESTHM
Description: Stably transfected HNHE3/PS 120 cells were grown to near confluency in 24-well plates. The cells were serum-starved for 24 hours to arrest growth. ^22Na^+ uptake (1 mM) was measured during the linear phase of uptake in the presence of 1 mM ouabain and various concentrations of potential inhibitors amiloride or ethylisopropylamiloride (EIPA) following acidification with NH4Cl prepulse, as detailed previously (30).
Human brush border epithelial Na^+/H^+ exchange has been characterized as being much less sensitive to inhibition by amiloride and its 5-amino-substituted analogues than basolateral and nonepithelial membrane Na^+/H^+ exchangers (10,24,36). Therefore we determined the quantitative sensitivity of HNHE3/PS120 cells to inhibition by amiloride and EIPA by ^22Na^+ uptake studies. The concentration dependence for amiloride and EIPA inhibition of the initial rate of ^22Na^+ uptake (1 mM) into acid loaded HNHE3/PS120 cells was determined.
Three independent experiments were performed. […] FIG. 6 provides curves are from a representative experiment. Each point represents the mean percent of control ^22Na^+ uptake of duplicate experiments for each concentration of inhibitor. The curves are nonlinear least squares fits of the data assuming a single binding site for the inhibition (GraphPAD Software, Inc., San Diego, Calif.).

Rabbit NHE3 = Rabbit NHE3 (Oryctolagus cuniculus, UniProt P26432); settings: read-out: Inhibition constants (IC50); cited from earlier work
Rabbit NHE3, sequence (P26432 30-832): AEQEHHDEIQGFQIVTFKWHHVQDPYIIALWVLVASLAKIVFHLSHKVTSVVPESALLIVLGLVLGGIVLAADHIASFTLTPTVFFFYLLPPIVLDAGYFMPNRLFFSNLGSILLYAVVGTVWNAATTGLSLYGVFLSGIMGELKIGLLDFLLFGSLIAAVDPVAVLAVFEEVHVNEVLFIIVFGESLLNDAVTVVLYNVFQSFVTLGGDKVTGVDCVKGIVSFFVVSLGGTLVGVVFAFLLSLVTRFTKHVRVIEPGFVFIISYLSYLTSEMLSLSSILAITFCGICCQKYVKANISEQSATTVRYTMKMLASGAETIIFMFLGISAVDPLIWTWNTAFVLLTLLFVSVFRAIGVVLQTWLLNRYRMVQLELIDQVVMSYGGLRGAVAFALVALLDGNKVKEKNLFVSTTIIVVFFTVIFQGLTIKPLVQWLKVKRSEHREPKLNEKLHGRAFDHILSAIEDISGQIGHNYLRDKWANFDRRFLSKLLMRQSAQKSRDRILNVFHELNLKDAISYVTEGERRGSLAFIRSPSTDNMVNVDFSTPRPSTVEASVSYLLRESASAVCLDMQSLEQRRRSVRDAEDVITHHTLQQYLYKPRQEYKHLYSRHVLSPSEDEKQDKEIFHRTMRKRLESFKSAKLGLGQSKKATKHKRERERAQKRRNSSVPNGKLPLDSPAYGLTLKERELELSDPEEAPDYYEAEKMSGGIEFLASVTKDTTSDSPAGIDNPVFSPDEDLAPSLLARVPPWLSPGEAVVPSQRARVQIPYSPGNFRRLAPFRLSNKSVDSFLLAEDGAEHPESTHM

human NHE3 [2] = biological target: T1, human NHE3; assay: Na+/H+ exchange activity by BCECF fluorescence (pHi) in HNHE3/PS120 cells; assay type: cell-based
Description: HNHE3/PS120 cells were grown to 70-80% confluency on glass coverslips, serum starved overnight to arrest growth, washed with Na^+ medium (containing in mM: 130 NaCl, 5 KCl, 2 CaCl2, 1 MgSO4, 1 NaPO4, 25 glucose, 20 HEPES, pH 7.4) and loaded with the acetoxymethyl ester of 2′,7′-bis(2-carboxyethyl)-5-(and-6)carboxyfluorescein (BCECF) as previously discussed (31). Cells were washed with TMA medium (containing in mM: 130 tetramethylammonium-C1, 5 KCl, 2 CaCl2 1 MgSO4, 1 TMA-P04, 25 glucose, 20 HEPES, pH 7.4), mounted in a cuvette, and perfused at 37° C. Cells were acidified by perfusing with 30 mM NH4Cl prepulse followed by removal of NH4Cl with TMA medium. The cuvette was then perfused with Na^+ medium. […] Na^+/H^+ exchange was determined by multiplying the initial rate of Na^+ dependent alkalinization by intracellular buffering capacity, as described.
HNHE3/PS120 cells loaded with BCECF were acidified by NH4Cl prepulse.
Serum starved HNHE3/PS120 cells were acidified by a NH4Cl prepulse and allowed to recover in 130 mM Na^+ medium until steady-state pHi was obtained.

[3] = mean of three independent experiments, read-out: Inhibition constants (IC50) of 22Na+ uptake, mean
[4] = single representative experiment, nonlinear least squares fit, read-out: IC50 of the representative curves (FIG. 6)

Rat NHE3, sequence (P26433 29-831): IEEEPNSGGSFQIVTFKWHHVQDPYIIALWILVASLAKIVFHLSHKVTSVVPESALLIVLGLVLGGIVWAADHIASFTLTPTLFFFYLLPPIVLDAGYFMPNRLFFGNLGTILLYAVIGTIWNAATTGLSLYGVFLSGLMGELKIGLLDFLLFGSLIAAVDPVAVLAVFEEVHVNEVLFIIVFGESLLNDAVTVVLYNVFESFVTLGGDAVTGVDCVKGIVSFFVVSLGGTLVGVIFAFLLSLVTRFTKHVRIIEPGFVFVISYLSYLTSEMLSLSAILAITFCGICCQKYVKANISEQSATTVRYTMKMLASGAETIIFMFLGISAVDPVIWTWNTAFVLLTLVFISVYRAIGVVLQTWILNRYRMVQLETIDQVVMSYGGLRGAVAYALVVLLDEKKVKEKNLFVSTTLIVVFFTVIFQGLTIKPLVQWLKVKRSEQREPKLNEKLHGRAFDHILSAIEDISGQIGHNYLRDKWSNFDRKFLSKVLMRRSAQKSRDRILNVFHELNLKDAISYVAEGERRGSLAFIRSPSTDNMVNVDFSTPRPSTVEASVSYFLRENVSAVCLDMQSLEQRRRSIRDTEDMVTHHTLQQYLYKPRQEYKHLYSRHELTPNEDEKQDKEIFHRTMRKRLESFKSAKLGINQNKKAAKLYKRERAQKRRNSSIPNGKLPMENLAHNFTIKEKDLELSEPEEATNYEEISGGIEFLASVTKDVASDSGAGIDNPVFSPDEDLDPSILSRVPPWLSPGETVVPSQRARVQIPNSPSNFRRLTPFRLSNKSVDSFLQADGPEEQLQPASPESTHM

Structure (SMILES) | IC50 (Rat NHE3) | IC50 (human NHE3 [1]; [3]) | IC50 (human NHE3 [1]; [4]) | IC50 (Rabbit NHE3) | ΔpHi at steady state after addition (human NHE3 [2]; FGF 10 ng/ml (n=4) or PMA 1.0 μM (n=5), 130 mM Na+ medium, controls −0.006±0.012) | time to reach new steady state pHi (average) (human NHE3 [2]; FGF 10 ng/ml or PMA 1.0 μM added at steady-state pHi) | effect on human NHE3 Na+/H+ exchange activity (in words) (human NHE3 [2]; FGF 10 ng/ml, 8-bromo-cAMP 0.5 mM, PMA 1.0 μM, at steady-state pHi)
N=C(N)NC(=O)c1nc(Cl)c(N)nc1N [Amiloride, amiloride] | 100 µM | 49 µM | 59 µM | 39 µM |  |  | 
CCN(c1nc(N)c(C(=O)NC(=N)N)nc1Cl)C(C)C [Ethylisopropylamiloride, ethylisopropylamiloride] | 2.4 µM | 6.6 µM | 8.8 µM | 8 µM |  |  | 
CCCCCCCCCCCCCC(=O)O[C@@H]1[C@@H](C)[C@@]2(O)[C@@H](C=C(CO)C[C@]3(O)C(=O)C(C)=C[C@@H]23)[C@@H]2C(C)(C)[C@]12OC(C)=O [PMA, phorbol 12-myristate 13-acetate] |  |  |  |  | −0.052±0.006 | less than 2 min | inhibition of the transfected Na^+/H^+ exchanger; also recorded: inhibited
